# Assay results: US20240158391A1, “DERIVATIVES OF 4-(IMIDAZO[1,2-A]PYRIDIN-3-YL)-N-(PYRIDIN-3-YL) PYRIMIDIN-2- AMINE FOR TREATING PROLIFERATIVE DISEASES AND CONDITIONS” (AUCENTRA THERAPEUTICS PTY LTD, priority 2019, published 2024)
# Experiments:
# CDK4/CyclinD1 = CDK4/CyclinD1 (Homo sapiens, UniProt P11802); assay: ADP Glo kinase assay, CDK4/CyclinD1; assay type: biochemical; conditions: compound at 1 μM, read-out: Residual enzymatic activity (%) at 1 μM, CDK4 D1
# Procedure, shortened: (§1)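 ADP Glo reagent terminates each kinase reaction after an optimised incubation at room temperature. Compounds are tested at ten concentrations spanning 10 to 0.0005 μM, diluted 1:3, with 0.5% DMSO.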
# CDK2/CyclinA2 = CDK2/CyclinA2 (Homo sapiens, UniProt P24941); assay: ADP Glo kinase assay, CDK2/CyclinA2; assay type: biochemical; conditions: for Ki: Km ATP, read-out: Enzymatic inhibition, Ki, CDK2 A; for remaining activity at 1 µM: compound at 1 μM, read-out: Residual enzymatic activity (%) at 1 μM, CDK2 A
# Procedure, shortened: as §1
# CDK6/CyclinD3 = CDK6/CyclinD3 (Homo sapiens, UniProt Q00534); assay: ADP Glo kinase assay, CDK6/CyclinD3; assay type: biochemical; conditions: for remaining activity at 1 µM: compound at 1 μM, read-out: Residual enzymatic activity (%) at 1 μM, CDK6 D3; for Ki: Km ATP, read-out: Enzymatic inhibition, Ki, CDK6 D3
# Chain of CDK6/CyclinD3 (Q00534 whole entry, species assumed): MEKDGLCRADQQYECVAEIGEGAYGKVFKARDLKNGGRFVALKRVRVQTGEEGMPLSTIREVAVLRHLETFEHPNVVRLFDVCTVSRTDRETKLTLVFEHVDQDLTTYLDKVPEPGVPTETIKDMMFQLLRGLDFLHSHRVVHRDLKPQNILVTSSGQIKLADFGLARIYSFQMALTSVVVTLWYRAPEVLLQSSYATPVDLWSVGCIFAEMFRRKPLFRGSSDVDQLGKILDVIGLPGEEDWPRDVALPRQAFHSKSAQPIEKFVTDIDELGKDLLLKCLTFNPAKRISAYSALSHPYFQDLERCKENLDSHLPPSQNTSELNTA
# Chain of CDK6/CyclinD3 (P30281 whole entry partner, species assumed): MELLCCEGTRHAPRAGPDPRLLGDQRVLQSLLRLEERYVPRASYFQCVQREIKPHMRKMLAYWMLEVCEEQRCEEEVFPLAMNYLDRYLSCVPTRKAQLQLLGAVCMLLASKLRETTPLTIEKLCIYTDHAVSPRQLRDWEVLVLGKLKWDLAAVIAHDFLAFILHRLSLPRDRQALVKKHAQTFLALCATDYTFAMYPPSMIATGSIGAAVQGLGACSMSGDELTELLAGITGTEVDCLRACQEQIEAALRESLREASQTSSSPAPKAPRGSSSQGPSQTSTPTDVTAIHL
# Procedure, shortened: as §1
# CDK9/CyclinT1 = CDK9/CyclinT1 (Homo sapiens, UniProt P50750); assay: ADP Glo kinase assay, CDK9/CyclinT1; assay type: biochemical; conditions: CDK9/CyclinT1; Km ATP; read-out: Enzymatic inhibition, Ki, CDK9 T1
# Chain of CDK9/CyclinT1 (P50750 whole entry, species assumed): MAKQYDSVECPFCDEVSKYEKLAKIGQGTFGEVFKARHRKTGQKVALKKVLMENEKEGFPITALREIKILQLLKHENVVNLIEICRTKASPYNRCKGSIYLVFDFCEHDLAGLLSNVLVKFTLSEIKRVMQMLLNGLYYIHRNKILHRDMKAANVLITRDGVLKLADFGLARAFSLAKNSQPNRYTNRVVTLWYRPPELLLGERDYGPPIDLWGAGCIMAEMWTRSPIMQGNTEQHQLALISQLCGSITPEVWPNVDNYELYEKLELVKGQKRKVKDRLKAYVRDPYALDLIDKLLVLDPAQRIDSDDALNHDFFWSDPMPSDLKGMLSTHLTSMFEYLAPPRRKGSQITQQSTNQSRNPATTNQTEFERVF
# Chain of CDK9/CyclinT1 (O60563 whole entry partner, species assumed): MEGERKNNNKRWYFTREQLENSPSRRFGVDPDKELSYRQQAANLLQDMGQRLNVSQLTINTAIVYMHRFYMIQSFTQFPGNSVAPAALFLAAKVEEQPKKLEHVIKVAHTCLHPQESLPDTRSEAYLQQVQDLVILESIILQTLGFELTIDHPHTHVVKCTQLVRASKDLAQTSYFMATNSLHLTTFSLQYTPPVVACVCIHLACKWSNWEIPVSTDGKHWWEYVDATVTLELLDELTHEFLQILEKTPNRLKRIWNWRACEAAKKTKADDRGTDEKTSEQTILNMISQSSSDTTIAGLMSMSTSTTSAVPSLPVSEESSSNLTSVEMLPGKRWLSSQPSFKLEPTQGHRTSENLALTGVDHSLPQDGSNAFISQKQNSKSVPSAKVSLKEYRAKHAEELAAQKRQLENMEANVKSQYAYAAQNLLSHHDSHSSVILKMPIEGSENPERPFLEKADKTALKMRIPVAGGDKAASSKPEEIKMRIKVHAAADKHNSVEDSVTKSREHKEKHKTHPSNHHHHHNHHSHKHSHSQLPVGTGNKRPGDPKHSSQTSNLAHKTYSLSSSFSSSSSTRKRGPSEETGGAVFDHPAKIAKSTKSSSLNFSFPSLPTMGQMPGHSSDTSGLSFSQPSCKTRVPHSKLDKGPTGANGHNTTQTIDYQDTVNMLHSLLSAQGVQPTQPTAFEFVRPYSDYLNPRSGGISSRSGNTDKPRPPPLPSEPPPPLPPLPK
# Procedure, shortened: as §1
# MV-4-11 = assay: Proliferation assay (resazurin, leukemia cell lines), MV-4-11; assay type: cell-based; conditions: Homo sapiens, MV4-11, read-out: 72 h Growth inhibition GI50, MV-4-11 cells
# Description: The following compounds were used as comparators.
# FLT3-ITD = molecular target: T1, FLT3-ITD (Homo sapiens, UniProt P36888); assay: ADP Glo kinase assay, FLT3-ITD; assay type: biochemical; conditions: Km ATP 100 μM, read-out: Enzymatic inhibition, Ki, FLT3-ITD
# T1 sequence (P36888 1-993): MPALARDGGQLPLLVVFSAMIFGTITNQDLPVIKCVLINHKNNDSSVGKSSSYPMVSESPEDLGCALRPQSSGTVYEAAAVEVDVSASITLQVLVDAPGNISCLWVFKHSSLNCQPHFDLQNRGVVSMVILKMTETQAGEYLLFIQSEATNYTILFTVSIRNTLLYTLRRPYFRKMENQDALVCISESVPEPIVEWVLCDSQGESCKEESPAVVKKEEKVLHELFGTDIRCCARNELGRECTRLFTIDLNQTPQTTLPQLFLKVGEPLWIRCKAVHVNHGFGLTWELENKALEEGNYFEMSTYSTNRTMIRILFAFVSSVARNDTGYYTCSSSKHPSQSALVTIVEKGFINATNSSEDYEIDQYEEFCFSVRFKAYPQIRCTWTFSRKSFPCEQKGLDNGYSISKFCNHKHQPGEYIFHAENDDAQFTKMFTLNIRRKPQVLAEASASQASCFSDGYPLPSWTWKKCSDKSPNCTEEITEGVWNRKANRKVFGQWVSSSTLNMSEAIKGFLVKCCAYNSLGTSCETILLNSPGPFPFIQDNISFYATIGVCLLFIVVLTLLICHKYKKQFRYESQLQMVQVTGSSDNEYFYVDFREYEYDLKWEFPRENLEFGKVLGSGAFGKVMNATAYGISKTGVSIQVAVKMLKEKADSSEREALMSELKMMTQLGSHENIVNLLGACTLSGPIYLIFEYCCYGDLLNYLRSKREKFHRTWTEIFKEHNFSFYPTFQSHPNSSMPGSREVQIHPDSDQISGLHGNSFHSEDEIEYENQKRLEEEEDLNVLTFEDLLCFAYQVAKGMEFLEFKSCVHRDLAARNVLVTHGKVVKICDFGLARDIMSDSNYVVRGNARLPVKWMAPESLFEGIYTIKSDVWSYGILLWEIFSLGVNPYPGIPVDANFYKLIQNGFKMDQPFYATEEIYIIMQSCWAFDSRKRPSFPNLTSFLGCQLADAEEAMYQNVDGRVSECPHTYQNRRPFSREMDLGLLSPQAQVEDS
# Procedure, shortened: as §1
# CDK7/CyclinH/Mat1 = CDK7/CyclinH/Mat1 (Homo sapiens, UniProt P50613); assay: ADP Glo kinase assay, CDK7/CyclinH/Mat1; assay type: biochemical; conditions: for remaining activity at 1 µM: compound at 1 μM, read-out: Residual enzymatic activity (%) at 1 μM, CDK7 H
# Chain of CDK7/CyclinH/Mat1 (P50613 whole entry, species assumed): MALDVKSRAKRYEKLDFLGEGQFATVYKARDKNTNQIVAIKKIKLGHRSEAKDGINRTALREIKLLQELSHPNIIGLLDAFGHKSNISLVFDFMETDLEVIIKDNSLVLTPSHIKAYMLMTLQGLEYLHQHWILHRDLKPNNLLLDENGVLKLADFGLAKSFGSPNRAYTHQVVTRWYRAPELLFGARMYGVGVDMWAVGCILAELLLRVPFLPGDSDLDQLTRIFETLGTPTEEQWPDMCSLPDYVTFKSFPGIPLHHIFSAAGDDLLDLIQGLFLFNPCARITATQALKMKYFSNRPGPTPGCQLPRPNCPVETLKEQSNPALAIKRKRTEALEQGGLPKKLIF
# Chain of CDK7/CyclinH/Mat1 (P51946 whole entry partner, species assumed): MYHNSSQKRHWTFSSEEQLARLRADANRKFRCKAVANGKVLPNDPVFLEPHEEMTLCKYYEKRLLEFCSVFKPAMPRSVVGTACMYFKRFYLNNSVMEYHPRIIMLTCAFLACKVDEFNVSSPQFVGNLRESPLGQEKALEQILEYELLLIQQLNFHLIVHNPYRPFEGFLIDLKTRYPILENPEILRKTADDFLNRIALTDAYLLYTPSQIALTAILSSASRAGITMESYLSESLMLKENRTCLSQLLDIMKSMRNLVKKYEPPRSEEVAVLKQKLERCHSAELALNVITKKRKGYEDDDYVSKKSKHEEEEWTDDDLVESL
# Chain of CDK7/CyclinH/Mat1 (P51948 whole entry partner, species assumed): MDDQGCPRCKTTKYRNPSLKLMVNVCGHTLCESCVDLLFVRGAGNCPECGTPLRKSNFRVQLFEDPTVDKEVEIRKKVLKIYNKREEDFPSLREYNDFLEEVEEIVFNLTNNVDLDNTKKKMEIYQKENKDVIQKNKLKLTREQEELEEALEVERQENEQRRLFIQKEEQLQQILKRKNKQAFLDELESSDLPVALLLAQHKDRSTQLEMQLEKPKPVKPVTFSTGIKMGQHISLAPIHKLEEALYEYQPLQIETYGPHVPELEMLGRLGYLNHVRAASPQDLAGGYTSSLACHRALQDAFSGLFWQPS
# Procedure, shortened: as §1
# CDK1/CyclinB = CDK1/CyclinB (Homo sapiens, UniProt P06493); assay: ADP Glo kinase assay, CDK1/CyclinB; assay type: biochemical; conditions: for remaining activity at 1 µM: compound at 1 μM, read-out: Residual enzymatic activity (%) at 1 μM, CDK1 B; for Ki: Km ATP, read-out: Enzymatic inhibition, Ki, CDK1 B
# Chain of CDK1/CyclinB (P06493 whole entry, species assumed): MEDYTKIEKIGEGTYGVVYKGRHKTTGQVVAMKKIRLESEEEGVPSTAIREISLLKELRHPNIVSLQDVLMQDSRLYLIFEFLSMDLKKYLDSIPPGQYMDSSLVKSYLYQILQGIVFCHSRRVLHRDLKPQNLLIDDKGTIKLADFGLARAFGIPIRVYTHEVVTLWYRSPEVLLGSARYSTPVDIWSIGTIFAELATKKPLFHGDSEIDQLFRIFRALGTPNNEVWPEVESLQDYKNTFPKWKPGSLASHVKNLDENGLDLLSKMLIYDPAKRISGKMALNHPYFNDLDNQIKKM
# Chain of CDK1/CyclinB (P14635 whole entry partner, species assumed): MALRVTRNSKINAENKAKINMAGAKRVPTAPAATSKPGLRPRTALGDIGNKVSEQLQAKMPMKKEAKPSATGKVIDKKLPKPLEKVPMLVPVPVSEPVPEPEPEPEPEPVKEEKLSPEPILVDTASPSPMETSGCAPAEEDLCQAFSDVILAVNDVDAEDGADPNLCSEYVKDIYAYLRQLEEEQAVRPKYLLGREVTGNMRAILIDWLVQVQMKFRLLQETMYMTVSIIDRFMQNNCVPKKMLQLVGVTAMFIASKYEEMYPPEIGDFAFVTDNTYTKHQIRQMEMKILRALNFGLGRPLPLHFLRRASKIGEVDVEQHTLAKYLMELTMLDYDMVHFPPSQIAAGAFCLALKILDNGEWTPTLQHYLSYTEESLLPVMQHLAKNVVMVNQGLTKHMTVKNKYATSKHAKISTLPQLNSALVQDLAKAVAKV
# Procedure, shortened: as §1
# Chain of CDK4/CyclinD1 (P11802 whole entry, species assumed): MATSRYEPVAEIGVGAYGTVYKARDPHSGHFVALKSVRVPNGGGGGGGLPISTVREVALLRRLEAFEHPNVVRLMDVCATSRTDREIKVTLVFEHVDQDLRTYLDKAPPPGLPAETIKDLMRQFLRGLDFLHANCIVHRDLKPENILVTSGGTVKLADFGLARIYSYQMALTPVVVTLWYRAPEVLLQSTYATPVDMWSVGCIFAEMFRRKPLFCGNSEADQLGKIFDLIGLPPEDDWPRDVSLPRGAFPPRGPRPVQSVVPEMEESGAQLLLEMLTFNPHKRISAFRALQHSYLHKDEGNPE
# Chain of CDK4/CyclinD1 (P24385 whole entry partner, species assumed): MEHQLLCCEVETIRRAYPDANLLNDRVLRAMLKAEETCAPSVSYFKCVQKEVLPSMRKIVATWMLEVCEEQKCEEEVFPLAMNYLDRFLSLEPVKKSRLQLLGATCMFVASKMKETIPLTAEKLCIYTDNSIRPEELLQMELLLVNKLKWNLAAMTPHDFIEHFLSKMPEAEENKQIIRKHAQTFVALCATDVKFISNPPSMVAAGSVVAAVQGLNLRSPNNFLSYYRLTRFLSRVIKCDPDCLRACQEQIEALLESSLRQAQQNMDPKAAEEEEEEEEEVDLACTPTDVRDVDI
Structure (SMILES),remaining activity at 1 µM (CDK4/CyclinD1) [%],Ki (CDK2/CyclinA2) [nM],remaining activity at 1 µM (CDK6/CyclinD3) [%],Ki (CDK9/CyclinT1) [nM],GI50 (MV-4-11) [nM],Ki (FLT3-ITD) [nM],remaining activity at 1 µM (CDK7/CyclinH/Mat1) [%],remaining activity at 1 µM (CDK1/CyclinB) [%],remaining activity at 1 µM (CDK2/CyclinA2) [%],Ki (CDK6/CyclinD3) [nM],Ki (CDK1/CyclinB) [nM],"Ki (CDK7/CyclinH/Mat1; Km ATP, read-out: Enzymatic inhibition, Ki, CDK7 H) [nM]"
"CC(C)N1CCN(c2ccc(Nc3nccc(-c4cnc5ccc(-c6ccncc6)cn45)n3)cn2)CC1 [Compound 40, N-(6-(4-Isopropylpiperazin-1-yl)pyridin-3-yl)-4-(6-(pyridin-4-yl)imidazo[1,2-a]pyridin-3-yl)pyrimidin-2-amine]",57,344,52,12,47,11,32,41,,,,
"CC(=O)N1CCN(c2ccc(Nc3nccc(-c4cnc5ccccn45)n3)cn2)CC1 [Compound 41, 1-(4-(5-((4-(Imidazo[1,2-a]pyridin-3-yl)pyrimidin-2-yl)amino)pyridin-2-yl)piperazin-1-yl)ethan-1-one]",53,,70,91,27,32,77,31,22,,,
"Brc1ccc2ncc(-c3ccnc(Nc4ccc(N5CCNCC5)nc4)n3)n2c1 [Compound 42, 4-(6-Bromoimidazo[1,2-a]pyridin-3-yl)-N-(6-(piperazin-1-yl)pyridin-3-yl)pyrimidin-2-amine]",24,31,,29,22,9,27,,,> 500,78,
"COc1ccc(-c2ccc3ncc(-c4ccnc(Nc5ccc(N6CCN(C)CC6)nc5)n4)n3c2)cn1 [Compound 43, 4-(6-(6-Methoxypyridin-3-yl)imidazo[1,2-a]pyridin-3-yl)-N-(6-(4-methylpiperazin-1-yl)pyridin-3-yl)pyrimidin-2-amine]",68,,46,66,40,24,41,67,46,,,
"CC(=O)N1CCN(c2ccc(Nc3nccc(-c4cnc5ccc(Br)cn45)n3)cn2)CC1 [Compound 44, 1-(4-(5-((4-(6-Bromoimidazo[1,2-a]pyridin-3-yl)pyrimidin-2-yl)amino)pyridin-2-yl)piperazin-1-yl)ethan-1-one]",84,,55,719,21,137,77,56,28,,,
"CC(=O)N1CCN(c2ccc(Nc3nccc(-c4cnc5ccc(-c6ccccc6)cn45)n3)cn2)CC1 [Compound 45, 1-(4-(5-((4-(6-Phenylimidazo[1,2-a]pyridin-3-yl)pyrimidin-2-yl)amino)pyridin-2-yl)piperazin-1-yl)ethan-1-one]",91,,60,54,12,444,79,60,63,,,
"CC(=O)N1CCN(c2ccc(Nc3nccc(-c4cnc5ccc(-c6ccncc6)cn45)n3)cn2)CC1 [Compound 46, 1-(4-(5-((4-(6-(Pyridin-4-yl)imidazo[1,2-a]pyridin-3-yl)pyrimidin-2-yl)amino)pyridin-2-yl)piperazin-1-yl)ethan-1-one]",92,,31,310,25,80,71,21,62,,,
"CC(=O)N1CCN(c2ccc(Nc3nccc(-c4cnc5ccc(-c6cn[nH]c6)cn45)n3)cn2)CC1 [Compound 47, 1-(4-(5-((4-(6-(1H-Pyrazol-4-yl)imidazo[1,2-a]pyridin-3-yl)pyrimidin-2-yl)amino)pyridin-2-yl)piperazin-1-yl)ethan-1-one]",51,39,,45,29,25,,,,444,116,262
"COc1ccc(-c2ccc3ncc(-c4ccnc(Nc5ccc(N6CCN(C(C)=O)CC6)nc5)n4)n3c2)cn1 [Compound 48, 1-(4-(5-((4-(6-(6-Methoxypyridin-3-yl)imidazo[1,2-a]pyridin-3-yl)pyrimidin-2-yl)amino)pyridin-2-yl)piperazin-1-yl)ethan-1-one]",86,,30,274,18,86,75,58,34,,,
"CC(=O)N1CCN(c2ccc(Nc3nccc(-c4cnc5ccc(-c6cccc7[nH]ccc67)cn45)n3)cn2)CC1 [Compound 49, 1-(4-(5-((4-(6-(1H-Indol-4-yl)imidazo[1,2-a]pyridin-3-yl)pyrimidin-2-yl)amino)pyridin-2-yl)piperazin-1-yl)ethan-1-one]",92,,38,171,17,> 500,81,94,51,,,
"Cc1cnc(Nc2ccc(N3CCN(C)CC3)nc2)nc1-c1cnc2ccc(-c3ccccc3)cn12 [Compound 50, 5-Methyl-N-(6-(4-methylpiperazin-1-yl)pyridin-3-yl)-4-(6-phenylimidazo[1,2-a]pyridin-3-yl)pyrimidin-2-amine]",94,,79,410,813,210,51,91,90,,,
"CS(=O)(=O)N1CCN(c2ccc(Nc3nccc(-c4cnc5ccc(-c6ccco6)cn45)n3)cn2)CC1 [Compound 51, 4-(6-(Furan-2-yl)imidazo[1,2-a]pyridin-3-yl)-N-(6-(4-(methylsulfonyl)piperazin-1-yl)pyridin-3-yl)pyrimidin-2-amine]",96,,43,286,17,> 500,80,77,85,,,
"CC(C)N1CCN(c2ccc(Nc3nccc(-c4cnc5ccc(-c6ccsc6)cn45)n3)cn2)CC1 [Compound 54, N-(6-(4-Isopropylpiperazin-1-yl)pyridin-3-yl)-4-(6-(thiophen-3-yl)imidazo[1,2-a]pyridin-3-yl)pyrimidin-2-amine]",48,376,24,14,50,11,29,32,,,,
"c1ccc(-c2ccc3ncc(-c4ccnc(Nc5ccc(NC6CCOCC6)nc5)n4)n3c2)cc1 [Compound 58, N^5-(4-(6-Phenylimidazo[1,2-a]pyridin-3-yl)pyrimidin-2-yl)-N^2-(tetrahydro-2H-pyran-4-yl)pyridine-2,5-diamine]",33,,45,401,28,140,73,77,73,,,
